ChEMBL document CHEMBL1201862, “PubChem BioAssay data set” (2004)
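Method: 48-hour compound exposure of cells in 96-well plates, five concentrations, linear interpolation of endpoints. The concentration for 50% growth inhibition is given as GI50.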 Activity calls are given as the source filed them. No stated cut-off is given here; in the data, active = GI50 up to about 1.1 µM and inactive = higher.

What was measured:
Assay in all cases: inhibition of tumour cell growth, NCI panel, 48 h
[1] = test system: 786-0
[2] = test system: A498
[3] = test system: DU-145
[4] = test system: HOP-62
[5] = test system: Hs-578T
[6] = test system: M14
[7] = test system: MCF7
[8] = test system: MDA-MB-231
[9] = test system: MDA-MB-435
[10] = test system: NCI-H226
[11] = test system: NCI/ADR-RES
[12] = test system: PC-3
[13] = test system: SF-268
[14] = test system: SN12C
[15] = test system: T47D
[16] = test system: UACC-257
[17] = test system: OVCAR-5

| SMILES | GI50 [1] | GI50 [2] | GI50 [3] | GI50 [4] | GI50 [5] | GI50 [6] | GI50 [7] | GI50 [8] | GI50 [9] | GI50 [10] | GI50 [11] | GI50 [12] | GI50 [13] | GI50 [14] | GI50 [15] | GI50 [16] | GI50 [17] |
| --- | --- | --- | --- | --- | --- | --- | --- | --- | --- | --- | --- | --- | --- | --- | --- | --- | --- |
| NC(=O)Cc1nc2c(N)ncnc2n1C1OC(CO)C(O)C1O (stereo unspecified) | > 100 µM (inactive) | > 100 µM (inactive) | > 100 µM (inactive) | > 100 µM (inactive) | > 100 µM (inactive) | > 100 µM (inactive) | > 100 µM (inactive) | > 100 µM (inactive) | > 100 µM (inactive) | > 100 µM (inactive) | > 100 µM (inactive) | > 100 µM (inactive) | > 100 µM (inactive) | > 100 µM (inactive) | > 100 µM (inactive) | > 100 µM (inactive) |  |
| COC(=O)CCc1ccc2c(c1)[C@H](C(=O)OC)[C@@H](c1ccc(O)cc1)O2 | > 10 µM (inactive) | > 100 µM (inactive) | > 100 µM (inactive) | > 100 µM (inactive) | > 100 µM (inactive) | > 100 µM (inactive) | 72.9 µM (inactive) | > 100 µM (inactive) | > 100 µM (inactive) | 25.5 µM (inactive) | > 100 µM (inactive) | > 100 µM (inactive) | > 100 µM (inactive) | > 100 µM (inactive) | 78.2 µM (inactive) | > 100 µM (inactive) | > 100 µM (inactive) |
| O=C1/C(=C/c2ccc(Cl)cc2)N=C(c2ccccc2)N1/N=C/c1ccccc1O |  |  | 21 µM (inactive) | 1.87 µM (inactive) | 36.4 µM (inactive) | 2.84 µM (inactive) | 13.9 µM (inactive) | 15.1 µM (inactive) | 26.7 µM (inactive) | 19.2 µM (inactive) | 18.2 µM (inactive) | 10.3 µM (inactive) | 14.8 µM (inactive) | 23.4 µM (inactive) | 6.27 µM (inactive) | > 100 µM (inactive) | 12.7 µM (inactive) |
| CC1(C)CCCOc2cccc(c2)OCCCC(C)(C)C1=O | 41.5 µM (inactive) | 66.2 µM (inactive) | 85.3 µM (inactive) | 30.6 µM (inactive) | 39.7 µM (inactive) | 33.9 µM (inactive) | 31 µM (inactive) | 44.1 µM (inactive) | 34 µM (inactive) | 25.5 µM (inactive) | 38.3 µM (inactive) | 14.8 µM (inactive) | 54.8 µM (inactive) | 45.3 µM (inactive) | 31.8 µM (inactive) |  | > 100 µM (inactive) |
| C/C(=C1\C(=O)C(c2ccccc2)N(c2ccccc2)C1=O)c1ccc(Cl)cc1 (stereo unspecified) | 18.3 µM (inactive) | 16.7 µM (inactive) | 18.7 µM (inactive) | 23.1 µM (inactive) | 18.7 µM (inactive) | 19.8 µM (inactive) | 35.1 µM (inactive) | 22.3 µM (inactive) | 17.4 µM (inactive) | 18.4 µM (inactive) | 29.1 µM (inactive) | 14.3 µM (inactive) | 18.7 µM (inactive) | 30.7 µM (inactive) | 19.4 µM (inactive) | 16.9 µM (inactive) |  |
| CC1(C)OCC(C2OC3OC(C)(C)OC3C2c2ccccc2)O1 (stereo unspecified) | 58.6 µM (inactive) |  | 45.6 µM (inactive) | 49 µM (inactive) | 20.7 µM (inactive) | 33.7 µM (inactive) | 50.7 µM (inactive) | 55 µM (inactive) | 37.8 µM (inactive) | 22.4 µM (inactive) | 31.1 µM (inactive) | 24.3 µM (inactive) | 38.4 µM (inactive) | 26.7 µM (inactive) | 38.2 µM (inactive) | 36.1 µM (inactive) | 91.6 µM (inactive) |
| Clc1ccc(C(Cc2ccccc2)c2c(Cl)nc(N3CCNCC3)nc2Cl)cc1 (stereo unspecified) | 16.5 µM (inactive) | 11.9 µM (inactive) | 14.5 µM (inactive) | 15.7 µM (inactive) | 14.8 µM (inactive) | 16.2 µM (inactive) | 5.38 µM (inactive) | 12.8 µM (inactive) | 16.6 µM (inactive) | 22.8 µM (inactive) | 15.8 µM (inactive) | 14.3 µM (inactive) |  | 15.2 µM (inactive) | 12.8 µM (inactive) | 15.7 µM (inactive) | 17.7 µM (inactive) |
| CC(=O)On1c(-c2ccccc2-c2nc3ccccc3n2OC(C)=O)nc2ccccc21 | 46.6 µM (inactive) |  | 49.7 µM (inactive) | 97.9 µM (inactive) | 37.8 µM (inactive) | 33.8 µM (inactive) | 26.7 µM (inactive) | 42.8 µM (inactive) | 16.2 µM (inactive) | 25.9 µM (inactive) | 79.3 µM (inactive) | 4.43 µM (inactive) | 23 µM (inactive) | 39.6 µM (inactive) | 17.7 µM (inactive) | 12.5 µM (inactive) | > 100 µM (inactive) |
| CO/C=C(/C(=O)OC)[C@@H]1C[C@@H]1c1ccc2ccccc2c1 | 33.5 µM (inactive) | 39.3 µM (inactive) | 38.9 µM (inactive) | 45.4 µM (inactive) | 31.8 µM (inactive) | 22.8 µM (inactive) | 30.3 µM (inactive) | 26.3 µM (inactive) | 14.7 µM (inactive) | 29.2 µM (inactive) | 26.4 µM (inactive) | 27.7 µM (inactive) | 24.9 µM (inactive) | 32.7 µM (inactive) | 20.9 µM (inactive) | 26 µM (inactive) | 97.5 µM (inactive) |
| O=c1[nH]nc(Cc2ccccc2)n1/N=C/c1ccc([N+](=O)[O-])cc1 | > 100 µM (inactive) | > 100 µM (inactive) | > 100 µM (inactive) | > 100 µM (inactive) | > 100 µM (inactive) |  | > 100 µM (inactive) | > 100 µM (inactive) | > 100 µM (inactive) | > 100 µM (inactive) | > 100 µM (inactive) | > 100 µM (inactive) | > 100 µM (inactive) | > 100 µM (inactive) | > 100 µM (inactive) | > 100 µM (inactive) | > 100 µM (inactive) |
| CC(C)C1=CC23CCC4C(C)(C(=O)O)CCCC4(C)C2CC1C1C(=O)N(CCCCCCN2C(=O)C4C5CC6C7(C)CCCC(C)(C(=O)O)C7CCC6(C=C5C(C)C)C4C2=O)C(=O)C13 (stereo unspecified) | > 10 µM (inactive) | 11.6 µM (inactive) | > 10 µM (inactive) | > 10 µM (inactive) | 12.3 µM (inactive) | 11 µM (inactive) | 6.76 µM (inactive) | 15.3 µM (inactive) | 4.54 µM (inactive) | > 10 µM (inactive) |  | 5.9 µM (inactive) | 13.4 µM (inactive) | 14 µM (inactive) | 21.1 µM (inactive) |  | 22.4 µM (inactive) |
| C1=CN2C[n+]3ccc4ccccc4c3N=C2c2ccccc21 | 2.88 µM (inactive) |  | 6.62 µM (inactive) | 7.57 µM (inactive) | 3.92 µM (inactive) | 2.72 µM (inactive) | 0.929 µM (active) | 6.08 µM (inactive) | 2.19 µM (inactive) |  | 48.6 µM (inactive) | 8.2 µM (inactive) | 2.54 µM (inactive) | 2.47 µM (inactive) | 0.671 µM (active) | 2.92 µM (inactive) | 16.1 µM (inactive) |
